Measurements: patent US20230000894A1, “TREATING MITOCHONDRIAL DNA DEPLETION DISORDERS” (MITORAINBOW THERAPEUTICS, INC., priority 2019, published 2023)

What was measured:
[1] = Systemic exposure of dC and dT after oral dCMP+dTMP vs intravenous dC(P2)dT (Example 1); type: in vivo; settings: for metabolism in vivo (detectability of administered labeled analyte in plasma) / higher oral dose needed to deliver comparable plasma exposure of the corresponding nucleoside compared with intravenous dC(P2)dT: in vivo
Protocol: The systemic exposure of two mononucleotides (dCMP and dTMP) and their corresponding mononucleosides (dC and dT) following oral dosing of two mononucleotides (dCMP & dTMP) vs. intravenous dosing of a dinucleotide (dC(P2)dT) was determined. Test articles were prepared as follows:
Unlabeled test articles: dC=Deoxycytidine (nucleoside) dT=Deoxythymidine (nucleoside) dCMP=Deoxycytidine monophosphate (mononucleotide) dTMP=Deoxythymidine monophosphate (mononucleotide) dC(P2)dT or dT(P2)dC=Deoxycytidine-deoxythymidine diphosphate (dinucleotide) Labeled test articles: dC*=^15N3 labeled dC (labeled nucleoside) dT**=^13C10 and ^15N2 labeled dT (labeled nucleoside) The corresponding labeled nucleotides are dC*MP and dT**MP The corresponding labeled dinucleotide is dC*(P2)dT** or dT**(P2)dC*.
The nucleosides (dC and dT) and their corresponding monophosphate nucleotides (dCMP and dTMP) are naturally produced in the body. In order to differentiate naturally occurring vs exogenously administered dC/dT and dCMP/dTMP, a mixture of labeled dC*MP/dT**MP and unlabeled dCMP/dTMP was dosed via oral route, and a mixture of labeled dC*(P2)dT** and unlabeled dC(P2)dT via I.V. route. The labeled test articles served as tracers for the determination of systemic levels of exogenous dC/dT and dCMP/dTMP following dosing.
Plasma samples were then analyzed for the following analytes: dT**, dC*, dT**MP, dC*MP, and dC*(P2)dT**.
To correct for total TA (labeled+unlabeled) administered, the plasma levels of labeled analytes were multiplied by 10 and 5 for the P.O. and I.V. treatment groups, respectively. In addition, the total TA dose administered by P.O route was 1000 mg/kg (900 mg/kg unlabeled+100 mg/kg labeled) and 10 mg/kg (8 mg/kg unlabeled and 2 mg/kg labeled) for P.O. and I.V. treatment groups, respectively. To normalize by unit dose of TA administered the plasma levels of analytes were divided by 1000 and 10 for P.O. and I.V. treatment groups, respectively. The results of the label-corrected and dose-normalized levels of dT and dC for P.O. and I.V. routes of administration are shown in FIG. 2.
The differences in the AUC0-24h for I.V. vs. P.O. for both analytes are statistically different (p<0.01, t-test). The ratios of I.V./P.O. AUC(0-24h)'s are approximately 350 for dT and […].

[2] = Systemic exposure of dC and dT after a single I.V. vs one and two S.C. injections of dC(P2)dT (Example 2); type: in vivo; settings: rats, 10 mg/kg total per dose (2 labeled + 8 unlabeled), initial 24 h post-dose
Protocol: The systemic exposure of dC and dT following a single I.V. injection of dC(P2)dT vs one and two subcutaneous (S.C.) injections of dC(P2)dT was compared, where the second S.C. injection is administered 24 h after the first.
Plasma levels of label-normalized dT and dC levels following a single I.V. and one and two S.C. administrations of labeled and unlabeled dC(P2)dT groups are shown in FIG. 4.

Row | Compound | metabolism in vivo (detectability of administered labeled analyte in plasma) [1] | higher oral dose needed to deliver comparable plasma exposure of the corresponding nucleoside compared with intravenous dC(P2)dT [1] | other results
1 | Deoxycytidine-deoxythymidine diphosphate [dC(P2)dT] | – | – | ratio of plasma AUC0-24h I.V. vs P.O. for dC ([1]; label-corrected, dose-normalized total dC in plasma, I.V. dC(P2)dT 10 mg/kg total vs P.O. dCMP+dTMP 1000 mg/kg total, p<0.01, t-test): ~110 fold; ratio of plasma AUC0-24h I.V. vs P.O. for dT ([1]; label-corrected, dose-normalized total dT in plasma, I.V. dC(P2)dT 10 mg/kg total vs P.O. dCMP+dTMP 1000 mg/kg total, p<0.01, t-test): approximately 350 fold; mean AUC0-24h of dT and dC in plasma, I.V. vs one and two S.C. administrations [2]: not statistically different
2 | Cc1cn([C@H]2C[C@H](O)[C@@H](COP(=O)(O)O)O2)c(=O)[nH]c1=O [dT**MP] | rapid metabolism | – | –
3 | Nc1ccn([C@H]2C[C@H](O)[C@@H](COP(=O)(O)O)O2)c(=O)n1 [dCMP, Deoxycytidine monophosphate] | – | approximately 110 fold | –
4 | Cc1cn([C@H]2C[C@H](O)[C@@H](COP(=O)(O)O)O2)c(=O)[nH]c1=O [dTMP, Deoxythymidine monophosphate] | – | approximately 350 fold | –
5 | Nc1ccn([C@H]2C[C@H](O)[C@@H](COP(=O)(O)O)O2)c(=O)n1 [dC*MP] | rapid metabolism | – | –
